Measured values as given in patent US20110046223A1, “TREATMENT OF NEUROFIBROMATOSIS” (RAMOT AT TEL-AVIV UNIVERSITY LTD., priority 2006, published 2011).

Tests used:
[1] = tested on: NF-1 cell lines T265P21, ST88-14, and 90-8; experiment: actin stress fibers, rhodamine-phalloidin confocal microscopy; assay type: cell-based, human; settings: T265P21, ST88-14, and 90-8, 75 μM FTS; controls 82%-87%
Procedure: (§1) The human NF-1 MPNST cell lines ST88-14, T265P21 and 90-8 and the non-NF-1 human MPNST cell line STS26T were obtained from Dr. Nancy Ratner. T265P21, 90-8, and ST88-14 cells were maintained in RPMI/15% fetal calf serum (FCS) medium and STS26T cells were maintained in DMEM/10% FCS, as described in Weisz, B., et al., supra. Cells were plated at a density of 1×10^6 cells per 10-cm plate for biochemical and immunoblotting assays, 2.5×10^3 cells/well in 24-well plates for cell-growth assays, or on glass cover slips (5×10^4 cells per 35-mm dish) for labeling of actin cytoskeletal elements. […]
(§2) Unless otherwise indicated, cells were lysed 48 hours after being treated with lysis buffer, as described in Haklai, et al., supra. […] Protein bands were visualized by ECL and quantified by densitometry with Image Master VDS-CL (Amersham) using TINA 2.0 software (Ray Tests). To obtain reliable comparisons between replicated experiments for statistical analysis, a standardization procedure was used, in which the density of each given protein band as recorded with its specific Ab, was normalized. […] The standard average density was defined as 1.0, and each of the individually determined bands was related to this value. […]

non-NF-1 STS26T cells = experiment: as above; assay type: cell-based, human; settings: 75 μM FTS, mean±SD, n=3, P<0.05
Procedure: as §1, §2

ST88-14 cells = experiment: soft agar assay, anchorage-independent growth; assay type: cell-based; settings: Homo sapiens, 504 h, 3 weeks, read-out: inhibition of colony formation
Procedure: (§3) Noble agars (2% and 0.6%; Difco, Sparks, Md.) were prepared in double-distilled water and autoclaved. The 2% agar was melted and mixed with medium (DMEM X2 with 20% FCS, 100 μg/mL penicillin, and […]) and the mixture (50 μL) was placed in 96-well plates to provide the base agar (at a final concentration of 1%).
(§4) To determine whether FTS inhibited the transforming activity associated with NF-1-deficiency and to determine the effect of FTS on anchorage-independent growth, soft agar assays were performed. ST88-14 and STS26T cells were plated in soft agar and then treated with 0.1% DMSO as a control or with FTS (25 μM, 50 μM, or 75 μM) and grown for 3 weeks or 2 weeks, respectively. […] FTS inhibited colony formation of both cell lines; in the presence of 50 μM FTS, for example, colony formation was inhibited by 60% in STS26T cells and by 57% in ST88-14 cells. In the presence of 75 μM FTS, colony formation was inhibited by 84% and 87% in ST88-14 and STS26T cells, respectively.

STS26T cells = experiment: soft agar assay, anchorage-independent growth; assay type: cell-based; settings: Homo sapiens, STS-26T, 336 h, 2 weeks, read-out: inhibition of colony formation
Procedure: as §3, §4

For `CC(C)=CCC/C(C)=C/CC/C(C)=C/CSc1ccccc1C(=O)O` [FTS, S-farnesylthiosalicylic acid], the “cells with stress fibers after FTS, relative to total cell number” value [1] was 11%-20%, the “increase in stress-fiber formation” value (non-NF-1 STS26T cells) was 27%±11.9% and the inhibition at 50 µM (ST88-14 cells; 50 μM FTS) was 57%. It also gave an inhibition at 75 µM (ST88-14 cells; 75 μM FTS) of 84%, an inhibition at 50 µM (STS26T cells; 50 μM FTS) of 60% and an inhibition at 75 µM (STS26T cells; 75 μM FTS) of 87%.
